Test results taken from BindingDB's records for doi:10.1021/jm00060a002 (Merck Reserch Laboratories, 1993).
pIC50: −log10 of the molar value.

Target: T1, Gag-Pol polyprotein [588-1027]/[588-1147] (Human immunodeficiency virus 1, UniProt P04585)
T1 construct: 588-1027; 588-1147
Assay: Tested for inhibition against HIV-1 RT (used (poly)rC-(oligo)dG as the template)

Row | Structure (SMILES) | pIC50
1 | CCc1cc(CCc2nc3c(o2)CCCC3)c(=O)[nH]c1C [5-ethyl-6-methyl-3-[2-(4,5,6,7-tetrahydro-1,3-benzoxazol-2-yl)ethyl]-1,2-dihydropyridin-2-one] | 7.24
2 | CCc1cc(CCc2nc3ccccc3o2)c(N)nc1C [3-[2-(1,3-benzoxazol-2-yl)ethyl]-5-ethyl-6-methylpyridin-2-amine] | 4.00
